From US11731977B2, “SGC stimulators” (Cyclerion Therapeutics, Inc., priority 2016, dated 2023)
Where two headings read alike, the source gives them in different places.

Key:
male Long Evans rats = assay: Novel Object Recognition (NOR) test, MK-801-induced memory disruption (Example 10); assay type: in vivo, rat; settings: for reversal of MK-801-induced memory deficits (Recognition Index): Galantamine 1 mg/kg, vs Vehicle/MK-801; for Recognition Index, Mean: 0 to 3 minute time bin
Text: Objective. To assess the efficacy of compounds of the invention in reversing memory disruption induced by MK-801 using the Novel Object Recognition (NOR) test in male Long Evans rats. The NOR is a test of recognition learning and memory retrieval, which takes advantage of the spontaneous preference of rodents to investigate a novel object compared with a familiar one (Ennaceur and Delacour, 1988). […] The NOR test has been employed extensively to assess the potential cognitive-enhancing properties of novel test compounds. […] In the present study, a memory saving model was used to test the novel compound—MK-801 (Dizocilpine), an uncompetitive antagonist of the NMD A receptor was used to cause deficit of recognition memory. Compounds of the invention were evaluated through its efficacy in reversing memory impairment.
Animals. Adult male Long-Evans rats (275-299 gram at arrival from Envigo, Indianapolis, Ind.) were used in this study. Rats were placed in the experimental rooms and assigned unique identification numbers (tail marks). Rats were housed 2 per cage in polycarbonate cages with filter tops and acclimated for at least 7 days prior to testing. Animal room was maintained in a 12/12 h light/dark cycle (lights on at 07.00 EST), 22±1° C. and relative humidity at approximately 50%. Food and water were provided ad libitum. All animals were examined, handled and weighed prior to the study to assure adequate health and to minimize the non-specific stress associated with testing. Each animal was randomly assigned across the treatment groups. The experiments were conducted during the animal's light cycle phase.
MK-801 (0.1 mg/kg; Sigma-Aldrich) was dissolved in saline and injected IP 15 min prior to NOR training.
Galantamine (1 mg/kg; Tocris) was dissolved in saline and injected IP 15 minutes prior to training.
Compound I-1 (0.01, 0.1, and 1 mg/kg) was oral administrated 60 minutes prior to training. The dose volume was 4 ml/kg
Experimental procedures. NOR test was conducted in an open-field arena (40×40 cm) placed in a sound-attenuated room under dimmed lighting. Each rat was tested separately and care was taken to remove olfactory/taste cues by cleaning the arena and test objects with 70% alcohol between trials and rats. All training and testing trials were video-taped and scored by an observer blind to treatments.
On Days 1 and 2, rats were allowed to freely explore the arena (no objects inside) for a 5-minute habituation period. On Day 3 (training and testing day), rats were administered vehicle (saline), galantamine or compound solutions followed by MK-801 or vehicle (saline). After the pretreatment time, each animal was placed into the test arena in the presence of two identical objects. Each rat was placed in the arena facing the same direction at the same position, and the time spent actively exploring the objects during a 3-minute training period (T1) was recorded. The rat was returned to its home cage following training. NOR test (T2) was conducted 1 hours after T1. Each rat was placed back into the test arena in the presence of one familiar object and one novel object for 5 minutes, and the time spent exploring both objects was recorded during 0-1, 0-3 and 0-5 min time ranges. The presentation order and position of the objects (left/right) in T2 was randomized between rats to prevent bias from order or place preference.
Statistical Analysis. Data of NOR test (T2) were expressed as Recognition Index, which is defined as the ratio of the time spent exploring the novel object over the total time spent exploring both objects (Novel/(Familiar+Novel)×100%) during the test session. Data were analyzed by using one-way ANOVA followed by Fisher's LSD post hoc test on 0-1, 0-3 and 0-5 minute time range separately, with significance set at P<0.05. […] And then statistical outliers that fell above or below two standard deviations from the mean were removed from the final analysis. […]

rats = assay: Acute and tonic pain: acetic acid test, abdominal cramps (Example 13); settings: Compound I-1 p.o. 10 mg/kg, 120 minutes after treatment
Protocol: Acetic Acid Test. Abdominal contraction was induced by intraperitoneal injection of 0.6% acetic acid solution in rats (10 mL/kg). The number of writhing (a twisting or contorting of the body due to pain) was recorded from the 5th to the 15th minute after injection.
Testing: 120 minutes after treatment. N=4/model/test. Results are expressed for each group as a percentage of activity calculated from the mean value of the vehicle-treated animals and compared to naïve animals, control paw, or cut-off value, depending on the test.

[1] = Non-human primate (NHP) CSF pharmacokinetic properties (Example 6); assay type: in vivo, Cynomolgus monkeys; settings: male, Cynomolgus monkey
Protocol: Protocol PK in NHP was determined following intravenous and oral dosing. For the intravenous (IV) experiments, a group of 4 male Cynomolgus monkeys were used. The IV group was dosed with 0.3 mg/kg of a compound formulated as a solution in 10% PEG-400, 25% of a 20% Solutol HS 15 in Water, and 65% DPBS. IV doses were administered by injection and delivered via catheter into the cephalic vein. For the oral (PO) experiments, a group of 4 male Cynomolgus monkeys were used. The PO group was dosed with 1 mg/kg of a compound formulated as a suspension in 1% HPMC E5, 0.2% Tween 80, 0.5% MC in water. PO doses were administered by oral gavage and delivered via gelatin capsule.
Plasma and CSF samples were collected as follows: samples of CSF and blood were collected at 1, 4 and 24 hours post IV dosing and 2, 8 and 24 hours post PO dosing. CSF samples (0.05 mL) were collected either the cisterna magna (primary site) or the lumbosacral region (L4/5) via direct needle puncture at the appropriate time points. Blood samples (0.25 mL) were collected from a peripheral vein. These samples were kept on ice until processed for plasma. Blood samples were centrifuged at 3200 rpm for 5 minutes at approximately 5° C. within 1 hour of collection. Plasma was directly transferred to a 96-well plate tube (0.125 mL). Plug caps were placed on the tubes and the tubes frozen at approximately −70° C. and stored until analysis. Plasma was collected and analyzed for the presence of a compound.
Quantitation of Compounds. The compound of the invention and the internal standard were extracted from plasma and CSF by precipitation. Samples were analyzed using liquid chromatography (LC) with tandem mass spectrometric detection (MS/MS) using electrospray ionization. The standard curve range was from 1 to 1000 ng/mL. Results of the compounds described herein in this assay are illustrated in Tables 6a and 6b below (0.3 mg/kg IV dose, 1 mg/kg PO dose).
Kp,uu is defined as the concentration ratio of unbound drug in CSF to unbound drug in plasma. Unbound drug in plasma (or free plasma concentration) is calculated by multiplying the total plasma concentration by the unbound fraction as determined by plasma protein binding. The CSF concentration is then divided by the free plasma concentration to determine the Kp,uu. (See e.g., Di et al., J. Med Chem., 56, 2-12 (2013))

SMILES: Fc1ccccc1Cc1nc(-c2nc(C(F)(F)F)n[nH]2)cn2ccnc12 [Compound I-1, 8-(2-fluorobenzyl)-6-(3-(trifluoromethyl)-1H-1,2,4-triazol-5-yl)imidazo[1,2-a]pyrazine]
- reversal of MK-801-induced memory deficits (Recognition Index) (male Long Evans rats; 0-1 min time range, Compound I-1 1 mg/kg): significantly reversed
- reversal of MK-801-induced memory deficits (Recognition Index) (male Long Evans rats; 0-3 minute time range, Compound I-1 0.1 and 1 mg/kg): significantly reversed
- reversal of MK-801-induced memory deficits (Recognition Index) (male Long Evans rats; 0-5 minute time range, Compound I-1 1 mg/kg): significantly reversed
- Recognition Index, Mean (male Long Evans rats; I-1 (0.1 mg/kg) oral + MK-801): 60.1%
- Recognition Index, Mean (male Long Evans rats; I-1 (1 mg/kg) oral + MK-801): 64.8%
- Recognition Index, Mean (male Long Evans rats; I-1 (10 mg/kg) oral + MK-801): 66.8%
- % of activity vs. vehicle (rats): 7%
- Kp uu at 1 h ([1]; CSF / unbound plasma, 0.3 mg/kg IV, @ 1 h): 1.8
- Kp uu at 4 h ([1]; CSF / unbound plasma, 0.3 mg/kg IV, @ 4 h): 3
- Kp uu at 24 h ([1]; CSF / unbound plasma, 0.3 mg/kg IV): 2.8
- Kp uu at 2 h ([1]; CSF / unbound plasma, 1 mg/kg PO, @ 2 h): 1.8
- Kp uu at 8 h ([1]; CSF / unbound plasma, 1 mg/kg PO, @ 8 h): 2.5
- Kp uu at 24 h ([1]; CSF / unbound plasma, 1 mg/kg PO): 2.1
- concentration at 1 h ([1]; CSF, 0.3 mg/kg IV, @ 1 h, read-out: CSF Conc.): 27 nM
- concentration at 4 h ([1]; CSF, 0.3 mg/kg IV, @ 4 h, read-out: CSF Conc.): 20 nM
- concentration at 24 h ([1]; CSF, 0.3 mg/kg IV, read-out: CSF Conc.): 6 nM
- concentration at 2 h ([1]; CSF, 1 mg/kg PO, @ 2 h, read-out: CSF Conc.): 42 nM
- concentration at 8 h ([1]; CSF, 1 mg/kg PO, @ 8 h, read-out: CSF Conc.): 31 nM
- concentration at 24 h ([1]; CSF, 1 mg/kg PO, read-out: CSF Conc.): 11 nM
